Earlier results in patent US11311853B2, “Process for the preparation of double crosslinked core-shell polymeric nanoparticles for multimodal imaging and theranostic applications” (FONDAZIONE ISTITUTO ITALIANO DI TECNOLOGIA, priority 2017, dated 2022).

Settings: commercial Gd-DTPA

Structure (SMILES): O=C([O-])CN(CCN(CC(=O)[O-])CC(=O)O)CCN(CC(=O)[O-])CC(=O)O.[Gd+3] [Gd-DTPA, Gd-diethylenetriaminepentaacetic acid]
- relaxivity in MRI: 4 mM⁻¹ s⁻¹
